Format in all cases: cell-based
Test [1] concerns the target T1, ESR1 (Homo sapiens, UniProt P03372).
T1 sequence (P03372 1-595): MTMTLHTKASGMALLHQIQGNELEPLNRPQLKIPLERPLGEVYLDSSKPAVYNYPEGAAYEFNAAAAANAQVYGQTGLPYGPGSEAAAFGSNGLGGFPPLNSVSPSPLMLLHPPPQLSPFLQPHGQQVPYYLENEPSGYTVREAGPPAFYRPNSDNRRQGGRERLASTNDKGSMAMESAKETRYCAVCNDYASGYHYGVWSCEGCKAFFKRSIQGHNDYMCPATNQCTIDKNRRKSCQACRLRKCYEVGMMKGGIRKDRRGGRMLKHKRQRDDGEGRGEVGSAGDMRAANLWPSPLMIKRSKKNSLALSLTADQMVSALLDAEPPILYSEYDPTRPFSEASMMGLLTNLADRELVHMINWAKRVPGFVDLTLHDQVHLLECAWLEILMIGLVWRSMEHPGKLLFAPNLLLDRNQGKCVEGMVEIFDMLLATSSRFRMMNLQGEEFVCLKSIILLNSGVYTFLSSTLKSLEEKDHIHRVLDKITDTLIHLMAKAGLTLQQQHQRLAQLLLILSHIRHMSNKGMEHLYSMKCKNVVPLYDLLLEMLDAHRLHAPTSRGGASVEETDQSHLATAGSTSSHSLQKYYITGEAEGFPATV
In words: Mammalian two-hybrid conformational profiling of ESR1 with peptide probes in SKBR3 cells. Details: expressed in transfected cells; host or cells: SKBR3. On the procedure:
Triplicate wells of SKBR3 cells were transfected (Lipofectin per manufacturer's instructions) with plasmids expressing ERα fused to VP16 together with Gal4DBD alone (control) or fused to ER interacting peptides noted on the horizontal axis. Cells were then treated with RAD1901 (1 nM-1 μM) or the indicated ER ligands (100 nM). Interaction of ERα with the Gal4DBD peptide constructs was detected through activation of a Gal4 responsive luciferase reporter construct and was normalized to detected β-galactosidase activity generated by a co-transfected constitutive expression vector. Ligand classes recognized by each probe are indicated below the graph.
Mammalian 2-hybrid analysis of VP16-ESR1 with conformation-selective peptide probes was performed essentially as previously described (Wardell et al., (2012) Mol Endocrinol 26 (7):1235-1248).
The expression of ESR1 target genes responsive to (FIG. 10A) agonists, (FIG. 10B) primarily SERMs, or (FIG. 10C) SERMs and agonists was analyzed as in FIG. 5. Relative changes of these and additional target genes designed to evaluate dose dependent response to RAD1901 are presented in FIG. 11. Significant target gene regulation (*p<0.05) as compared to the vehicle control was detected by 2 way ANOVA followed by Fisher's LSD (Graphpad Prism 6). […] Triplicate wells of SKBR3 cells were transfected with plasmids expressing ESR1 fused to VP16 together with Gal4DBD alone (control) or Gal4DBD fused to ESR1 interacting peptides noted on the horizontal axis. Cells were then treated with the indicated ESR1 ligands (10^−7 M unless otherwise indicated). Interaction of ESR1 with the Gal4DBD peptide constructs was detected through activation of a Gal4-responsive luciferase reporter construct and was normalized to detected β-galactosidase activity expressed in a constitutive manner using a second vector. Normalized response was expressed as fold increase over the detected level of interaction between Gal4DBD alone and ESR1-VP16 in the absence of ligand (Veh). For FIG. 10E, the effect of SERMs and SERDs (10^−6 M) on the proliferation of MCF7 cells in response to E2 (10^−9 M) or insulin (2×10^−9 M) was evaluated as in FIG. 5. Statistically similar treatments (2-way ANOVA followed by Bonferroni comparison) are indicated by letters. […] The expression of ESR1 target genes responsive to (A) agonists, (B) primarily SERMs, or (C) SERMs and agonists was analyzed using RT qPCR following RNA isolation. mRNA expression was normalized (ΔΔCT analysis) to the similarly detected 36B4 housekeeping. The profiles presented in dendogram format were analyzed with the Ward hierarchical clustering algorithm (JMP 11) using standardized data.

The target of test [2] is T1, ESR1. The test can be described thus: ESR1 expression in MCF7 cells (immunoblot, mRNA, MG132 pre-treatment). On the procedure: Protein expression was analyzed as described (Wittmann et al., (2007) Cancer Res 67 (19):9549-9560) using antibodies purchased from Sigma-Aldrich—A5441 (β-actin) and Santa Cruz Biotechnology—sc-6259 (cytokeratin 18), sc-20680 (lamin A), sc-5546 (α-tubulin) and sc-8005 (ESR1).
Expression of ESR1 and loading control cytokeratin 18 (CK18—FIG. 7A) in whole cell extracts were detected by immunoblot (top). ESR1 levels relative to CK18 were quantitated by densitometry using Adobe Photoshop (bottom). […] ESR1 expression was detected as in FIG. 6A. For FIGS. 6C-6D, LTED MCF7 cells were plated in phenol red free media supplemented with FBS that was stripped of growth factors twice using charcoal. For FIG. 6C, after 48 hours, cells were treated for 24 hours with E2 (10^−7 M) or SERDs (10^−6 M) and ESR1 was analyzed as in FIG. 6A.
A general note: In western blotting, separated proteins are transferred to a membrane and probed.

The test system of another test is ESR1 target genes. The test can be described thus: ESR1 target gene expression profile in MCF7 cells. Conditions: 24 hours. On the procedure:
A recent extensive microarray analysis has identified “sentinel” subsets of ER-responsive genes that can differentiate between ER agonists, SERMs and SERDs. […] MCF7 breast cancer cells were treated 24 hours with RAD1901 (0-1 μM) in the presence or absence of 17β-estradiol (1 nM). RNA isolation and the analysis of the expression of target genes Anterior gradient protein 2 (AGR2) and KCNK6 was conducted as in Example 3.
The expression of ESR1 target genes responsive to (FIG. 10A) agonists, (FIG. 10B) primarily SERMs, or (FIG. 10C) SERMs and agonists was analyzed as in FIG. 5. […] Significant target gene regulation (*p<0.05) as compared to the vehicle control was detected by 2 way ANOVA followed by Fisher's LSD (Graphpad Prism 6). […] Interaction of ESR1 with the Gal4DBD peptide constructs was detected through activation of a Gal4-responsive luciferase reporter construct and was normalized to detected β-galactosidase activity expressed in a constitutive manner using a second vector. Normalized response was expressed as fold increase over the detected level of interaction between Gal4DBD alone and ESR1-VP16 in the absence of ligand (Veh). For FIG. 10E, the effect of SERMs and SERDs (10^−6 M) on the proliferation of MCF7 cells in response to E2 (10^−9 M) or insulin (2×10^−9 M) was evaluated as in FIG. 5. […]

We go through 1 compound from US10420734B2, “Method of treating cancer using selective estrogen receptor modulators” (Duke University, priority 2014, dated 2019).

“Also recorded” adds a separate entry of the source.

For `CCNCCc1ccc(CN(CC)c2cc(OC)ccc2[C@@H]2CCc3cc(O)ccc3C2)cc1` [RAD1901, (R)-6-{2-{ethyl[4-(2-ethylaminoethyl)benzyl]amino}-4-methoxyphenyl}-5,6,7,8-tetrahydronaphthalen-2-ol], at ESR1 [1], the “ESR1 conformation / peptide interaction profile” value is “induces a unique conformation of ERα; also recorded: completely distinct from any other known ligand”; the “interaction of αII peptide (hinge region surface)” value was “significant interaction”; the “interaction with peptides reporting ESR1 structures adopted upon binding tamoxifen (aβV) or ICI (βI2)” value is “No interaction was observed”; the “interaction with peptides that report on agonist activity (ASC1 and PGC1)” value is reported as “decreased interaction”. Also, the “ESR1 mRNA expression” value on ESR1 [2] is recorded as “no effect”. The “ESR1 expression (immunoblot)” value on ESR1 [2] (24 hours, RAD1901 10^-11-10^-5 M) is “significantly downregulated”. Besides, the “downregulation of ESR1 after pre-treatment with proteasome inhibitor MG132” value on ESR1 [2] (MG132 1 hour pre-treatment, 6 hours ligand) is “completely blocked”. Further, in the test with ESR1 target genes (RAD1901 0-1 μM, presence or absence of 17β-estradiol 1 nM), the “regulation of ER transactivation of target genes AGR2 and KCNK6” value was “dose dependent agonist/antagonist regulation”. The “expression pattern of ESR1 target genes (agonist-, SERM-, SERM/agonist-responsive)” value in the test with ESR1 target genes (RAD1901 10^-9-10^-6 M) is “biphasic response”.
